According to patent publication US11072741B2, “Optically anisotropic layer, method for producing the optically anisotropic layer, a laminate, polarizing plate, display device, liquid crystal compound, method for producing the liquid crystal compound, and carboxylic acid compound” (FUJIFILM Corporation, priority 2014, dated 2021):

Experiments:
[1] = Measurement and evaluation of solubility in MEK and CPN; type: physicochemical; conditions: for Solubility CPN wt %: cyclopentanone; for Solubility CPN wt % / Solubility MEK wt %: room temperature, visual observation, 5 wt % increments; for Solubility MEK wt %: methyl ethyl ketone
Method: Solubility measurements of the synthesized liquid crystal compounds were conducted by the following method. 50 mg of each compound was weighted into a 1.5 mL sample bottle, and solvent was added until the solid component became 40 wt % (75 mg). The solubility was determined to be 40 wt % if clear under visual observation after shaking well manually at room temperature. If undissolved residue was present, solvent was added such that the solid component became 35 wt % (+18 mg). The solubility was determined to be 35 wt % if clear under visual observation after shaking well manually at room temperature. If undissolved residue was present, solvent was added such that the solid component became 30 wt %. Similar operations were performed in increments of 5 wt %, and repeated until the solid component became 5 wt %. If undissolved residue was present, the solubility was determined to be less than 5 wt % (<5 wt %), and measurements were completed. MEK (methyl ethyl ketone) and CPN (cyclopentanone) were utilized as solvents for measuring solubility.
The measured values of solubility were evaluated. The evaluations were conducted by using solubility of a compound of a Comparative Example having Ar (the aromatic ring at the center of General Formula 1) in common with the Examples and a side chain portion represented by Formula (Ia) as a reference, in a manner similar to that in the evaluation of the phase transition temperature. Evaluations of A through C were assigned according to the degree of improvement in solubility from the reference solubility.
(§1) For example, compound (I-1) and (I-2) were compared to Comparative Compound (Ia-1), and Compound (III-3) was compared to Comparative Compound (IIIa-3). The evaluation was carried out based on the following criteria.
A: solubility improved twofold or greater in plural solvents or a single solvent
B: solubility was the same or improved up to twofold in plural solvents or a single solvent
C: no improvement in solubility in plural solvents or a single solvent

[2] = Evaluation of phase transition temperature by polarizing microscope; type: physicochemical; conditions: for TNi(° C.) Isotropic Phase Transition Point / Tsm—N(° C.) Sm—N Transition Point: during temperature increase
Source text: Here, the temperature at which the compound transitions from the smectic phase to the nematic phase may be easily measured by observation of the composition employing polarized light microscopy. For example, in the nematic phase, a schlieren texture specific to the nematic phase is observed, while the texture transitions to a focal conic fan texture in a smectic A phase. Therefore, the phase transition temperature can be measured by observing the textures with a polarizing microscope while increasing or decreasing the temperature.
The phase transition temperatures of the synthesized liquid crystal compounds of the Examples and Comparative Examples were observed using a polarizing microscope to evaluate the degrees of temperature decrease. Specifically, the compounds of the Examples were compared to the compounds of the Comparative Examples, which have different structures for the side chain portions thereof. That is, the phase transition temperature of a compound of a Comparative Example having Ar (the aromatic ring at the center of General Formula 1) in common with the Examples and a side chain portion represented by Formula (Ia) below was used as a reference. Evaluations of A through C were assigned according to the degree of temperature decrease from the reference phase transition temperature.
as §1
A: decrease in melting point or Sm-N (smectic-nematic) transition temperature is 20° C. or greater
B: decrease in melting point or Sm-N (smectic-nematic) transition temperature is 5° C. or greater and less than 20° C.
C: decrease in melting point or Sm-N (smectic-nematic) transition temperature is less than 5° C.
With respect to the phase transition temperature, the numerical value in parentheses represents the numerical value during temperature decrease, and other numerical values represent a numerical value during temperature increase.

[3] = versus comparative compound with the same Ar and side chain portion of Formula (Ia)

| melting point [°C] | Solubility CPN wt % [1] [wt %] | Solubility MEK wt % [1] [wt %] | TNi(° C.) Isotropic Phase Transition Point [2] | Tsm—N(° C.) Sm—N Transition Point [2] [°C] | Compound | Solubility Evaluation [1, 3] | Phase Transition Temperature Evaluation of Decrease [2, 3] |
| --- | --- | --- | --- | --- | --- | --- | --- |
| 123 | 25 | 15 | 145 °C | 137 | C=CC(=O)OCCOC(=O)CCC(=O)OCCc1ccc(OC(=O)[C@H]2CC[C@H](C(=O)Oc3ccc(OC(=O)[C@H]4CC[C@H](C(=O)Oc5ccc(CCOC(=O)CCC(=O)OCCOC(=O)C=C)cc5)CC4)c4sc(=S)sc34)CC2)cc1 [VI-7] | B (solubility was the same or improved up to twofold in plural solvents or a single solvent) | A (decrease in melting point or Sm-N (smectic-nematic) transition temperature is 20 °C or greater) |
| 148 | 10 | <5 | >210 ^ ° C. | 183 | C=CC(=O)OCCCCCCOc1ccc(OC(=O)[C@H]2CC[C@H](C(=O)Oc3ccc(OC(=O)[C@H]4CC[C@H](C(=O)Oc5ccc(OCCCCCCOC(=O)C=C)cc5)CC4)c4c3SC(=C(C#N)C#N)S4)CC2)cc1 [Ia-1] |  |  |
